In ChEMBL document CHEMBL3600373, “Mapping Selective Inhibition of the Cancer-Related Carbonic Anhydrase IX Using Structure-Activity Relationships of Glucosyl-Based Sulfamates” (J Med Chem, 2015):

Tests used:
Carbonic anhydrase 9 [1] = target: T1, Carbonic anhydrase 9 (Homo sapiens, UniProt Q16790)
Description: Inhibition of human recombinant CA9 expressed in Escherichia coli by stopped flow CO2 hydration assay

Carbonic anhydrase 12 = Carbonic anhydrase 12 (Homo sapiens, UniProt O43570); experiment: Inhibition of human recombinant CA12 expressed in Escherichia coli by stopped flow CO2 hydration assay
Carbonic anhydrase 2 = Carbonic anhydrase 2 (Homo sapiens, UniProt P00918); experiment: Binding affinity to human CA2
Carbonic anhydrase 9 [2] = target: T1, Carbonic anhydrase 9; experiment: Binding affinity to human CA9

Chain of Carbonic anhydrase 12 (O43570 whole entry): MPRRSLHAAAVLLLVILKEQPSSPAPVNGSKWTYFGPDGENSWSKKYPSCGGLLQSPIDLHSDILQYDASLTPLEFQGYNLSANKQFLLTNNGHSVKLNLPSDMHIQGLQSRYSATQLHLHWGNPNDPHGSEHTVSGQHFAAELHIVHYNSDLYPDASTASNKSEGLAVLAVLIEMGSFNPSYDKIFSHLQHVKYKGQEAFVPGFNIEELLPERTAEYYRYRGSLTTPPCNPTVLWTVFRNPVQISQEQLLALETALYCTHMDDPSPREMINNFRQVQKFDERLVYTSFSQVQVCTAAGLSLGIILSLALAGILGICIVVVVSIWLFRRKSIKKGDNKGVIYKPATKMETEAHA

Structure (SMILES)	Ki (Carbonic anhydrase 9 [1])	Ki (Carbonic anhydrase 12)	Kd (Carbonic anhydrase 2)	Kd (Carbonic anhydrase 9 [2])
CC(=O)OC[C@H]1O[C@@H](S(=O)(=O)NCCCCCOS(N)(=O)=O)[C@H](OC(C)=O)[C@@H](OC(C)=O)[C@@H]1OC(C)=O	2 nM	9 nM	–	–
OC[C@H]1O[C@@](CO)(O[C@H]2O[C@H](CO)[C@@H](O)[C@H](O)[C@H]2O)[C@@H](O)[C@@H]1O [SUCROSE]	–	–	450 mM	150 mM
